# ChEMBL document CHEMBL4340516, “Synthesis and antitumor activity of novel steroidal imidazolium salt derivatives” (Eur J Med Chem, 2019)
# Experiments:
# Type in all cases: functional, cell-based
# [1] = tested on: HL-60; assay: Antiproliferative activity against human HL60 cells assessed as reduction in cell viability incubated for 48 hrs by MTS assay; settings: HL-60, 48 h
# [2] = tested on: SMMC-7721; assay: Antiproliferative activity against human SMMC7721 cells assessed as reduction in cell viability incubated for 48 hrs by MTS assay; settings: SMMC-7721, 48 h
# [3] = tested on: MCF7; assay: Antiproliferative activity against human MCF7 cells assessed as reduction in cell viability incubated for 48 hrs by MTS assay; settings: MCF7, 48 h
# [4] = tested on: A549; assay: Antiproliferative activity against human A549 cells assessed as reduction in cell viability incubated for 48 hrs by MTS assay; settings: A549, 48 h
# [5] = tested on: SW480; assay: Antiproliferative activity against human SW480 cells assessed as reduction in cell viability incubated for 48 hrs by MTS assay; settings: SW480, 48 h
SMILES,IC50 [1],IC50 [2],IC50 [3],IC50 [4],IC50 [5]
c1ccc2[nH]cnc2c1 [BENZIMIDAZOLE],> 20 µM,> 20 µM,> 20 µM,> 20 µM,> 20 µM
C[C@@H]1CC[C@@]2(OC1)O[C@H]1C[C@H]3[C@@H]4CC=C5C[C@@H](n6ccnc6)CC[C@]5(C)[C@H]4CC[C@]3(C)[C@H]1[C@@H]2C,9.51 µM,9.74 µM,14.5 µM,9.92 µM,> 20 µM
CC(=O)O[C@H]1CC[C@@]2(C)C(=CC[C@H]3[C@@H]4CC[C@H](n5cc[n+](CC(=O)c6ccccc6)c5)[C@@]4(C)CC[C@@H]32)C1,6.42 µM,12 µM,9.07 µM,> 20 µM,11.1 µM
COc1ccc(C(=O)C[n+]2ccn([C@H]3CC[C@H]4[C@@H]5CC=C6C[C@@H](OC(C)=O)CC[C@]6(C)[C@H]5CC[C@]34C)c2)cc1,2.2 µM,4.31 µM,3.46 µM,10.7 µM,6.06 µM
CC(C)CCC[C@@H](C)[C@H]1CC[C@H]2[C@@H]3C[C@H](n4cc[n+](Cc5ccc6ccccc6c5)c4)[C@]45C[C@H]4CC[C@]5(C)[C@H]3CC[C@]12C,1.64 µM,1.04 µM,8.04 µM,7.67 µM,7.48 µM
C[C@]12CC[C@H]3[C@@H](CC=C4C[C@@H](O)CC[C@@]43C)[C@@H]1CC[C@@H]2n1ccnc1,> 20 µM,> 20 µM,> 20 µM,> 20 µM,> 20 µM
Cc1cc2c(cc1C)[n+](Cc1ccccc1Br)cn2[C@@H]1CC[C@@]2(C)C(=CC[C@H]3[C@@H]4CC[C@H]([C@H](C)CCCC(C)C)[C@@]4(C)CC[C@@H]32)C1,6.96 µM,1.81 µM,14.2 µM,8.44 µM,13.2 µM
c1c[nH]cn1 [IMIDAZOLE],> 20 µM,> 20 µM,> 20 µM,> 20 µM,> 20 µM
COc1ccc(C(=O)C[n+]2ccn([C@H]3C[C@H]4[C@@H]5CC[C@H]([C@H](C)CCCC(C)C)[C@@]5(C)CC[C@@H]4[C@@]4(C)CC[C@@H]5C[C@]534)c2)cc1,1.52 µM,1.1 µM,6.54 µM,6.68 µM,7.18 µM

# Stronger by IC50 [1], values ahead:
IC50 [1],IC50 [2],IC50 [3],IC50 [4],IC50 [5],SMILES
0.94 µM,1.61 µM,1.96 µM,1.21 µM,4.15 µM,COc1ccc(C(=O)C[n+]2ccn([C@H]3CC[C@@]4(C)C(=CC[C@H]5[C@@H]6C[C@@H]7O[C@]8(CC[C@@H](C)CO8)[C@@H](C)[C@@H]7[C@@]6(C)CC[C@@H]54)C3)c2)cc1
1.18 µM,2.14 µM,5.66 µM,1.86 µM,7.96 µM,C[C@@H]1CC[C@@]2(OC1)O[C@H]1C[C@H]3[C@@H]4CC=C5C[C@@H](n6cc[n+](CC(=O)c7ccccc7)c6)CC[C@]5(C)[C@H]4CC[C@]3(C)[C@H]1[C@@H]2C
0.98 µM,1.39 µM,2.78 µM,7.15 µM,2.22 µM,Cc1cc2c(cc1C)[n+](CC(=O)c1cccc(Br)c1)cn2[C@@H]1CC[C@@]2(C)C(=CC[C@H]3[C@@H]4C[C@@H]5O[C@]6(CC[C@@H](C)CO6)[C@@H](C)[C@@H]5[C@@]4(C)CC[C@@H]32)C1
< 0.008 µM,< 0.008 µM,< 0.008 µM,< 0.008 µM,< 0.008 µM,CC(=O)O[C@H]1C(=O)[C@@]2(C)[C@H]([C@H](OC(=O)c3ccccc3)[C@]3(O)C[C@H](OC(=O)[C@H](O)[C@@H](NC(=O)c4ccccc4)c4ccccc4)C(C)=C1C3(C)C)[C@]1(OC(C)=O)CO[C@@H]1C[C@@H]2O [PACLITAXEL]
0.88 µM,1.65 µM,7.18 µM,7.51 µM,10.2 µM,CC(C)CCC[C@@H](C)[C@H]1CC[C@H]2[C@@H]3CC=C4C[C@H](n5c[n+](CC(=O)c6ccccc6)c6ccccc65)CC[C@]4(C)[C@H]3CC[C@]12C
0.96 µM,1.89 µM,2.27 µM,3.34 µM,3.62 µM,C[C@@H]1CC[C@@]2(OC1)O[C@H]1C[C@H]3[C@@H]4CC=C5C[C@H](n6cc[n+](CC(=O)c7ccc8ccccc8c7)c6)CC[C@]5(C)[C@H]4CC[C@]3(C)[C@H]1[C@@H]2C
1.36 µM,1.75 µM,1.53 µM,1.77 µM,1.74 µM,C[C@@H]1CC[C@@]2(OC1)O[C@H]1C[C@H]3[C@@H]4CC=C5C[C@H](n6c[n+](CC(=O)c7cccc(Br)c7)c7ccccc76)CC[C@]5(C)[C@H]4CC[C@]3(C)[C@H]1[C@@H]2C
1.22 µM,2.45 µM,1.95 µM,4.92 µM,4.03 µM,C[C@@H]1CC[C@@]2(OC1)O[C@H]1C[C@H]3[C@@H]4C[C@H](n5cc[n+](Cc6ccc7ccccc7c6)c5)[C@]56C[C@H]5CC[C@]6(C)[C@H]4CC[C@]3(C)[C@H]1[C@@H]2C
1.1 µM,1.33 µM,1.67 µM,1.32 µM,1.75 µM,C[C@@H]1CC[C@@]2(OC1)O[C@H]1C[C@H]3[C@@H]4CC=C5C[C@H](n6c[n+](CC(=O)c7ccc8ccccc8c7)c7ccccc76)CC[C@]5(C)[C@H]4CC[C@]3(C)[C@H]1[C@@H]2C
0.43 µM,0.95 µM,1.41 µM,1.22 µM,1.66 µM,C[C@@H]1CC[C@@]2(OC1)O[C@H]1C[C@H]3[C@@H]4CC=C5C[C@H](n6cc[n+](Cc7ccccc7Br)c6)CC[C@]5(C)[C@H]4CC[C@]3(C)[C@H]1[C@@H]2C
0.74 µM,0.44 µM,2.31 µM,5.02 µM,2.01 µM,COc1ccc(C(=O)C[n+]2cn([C@@H]3CC[C@@]4(C)C(=CC[C@H]5[C@@H]6C[C@@H]7O[C@]8(CC[C@@H](C)CO8)[C@@H](C)[C@@H]7[C@@]6(C)CC[C@@H]54)C3)c3cc(C)c(C)cc32)cc1
0.44 µM,0.9 µM,2.91 µM,9.57 µM,3.22 µM,Cc1cc2c(cc1C)[n+](CC(=O)c1ccccc1)cn2[C@@H]1CC[C@@]2(C)C(=CC[C@H]3[C@@H]4C[C@@H]5O[C@]6(CC[C@@H](C)CO6)[C@@H](C)[C@@H]5[C@@]4(C)CC[C@@H]32)C1
0.18 µM,> 20 µM,> 20 µM,> 20 µM,> 20 µM,Cc1cc2ncn([C@@H]3CC[C@@]4(C)C(=CC[C@H]5[C@@H]6CC[C@H]([C@H](C)CCCC(C)C)[C@@]6(C)CC[C@@H]54)C3)c2cc1C
1.37 µM,5.49 µM,5.83 µM,3.49 µM,6.55 µM,C[C@@H]1CC[C@@]2(OC1)O[C@H]1C[C@H]3[C@@H]4CC=C5C[C@@H](n6cc[n+](CC(=O)c7ccc8ccccc8c7)c6)CC[C@]5(C)[C@H]4CC[C@]3(C)[C@H]1[C@@H]2C
